Drawing on US9227971B2, “Pyrazolo[1,5-a]pyrimidine compounds as mTOR inhibitors” (Merck Sharp & Dohme Corp., priority 2010, dated 2016), this text covers IC50 for 18 molecules.

Where two headings read alike, the source gives them in different places.

For test [1], the system named is phosphorylated 4E-BP1 Thr37/46 (p4E-BP1 Thr37/46), mTORC1 activity, PC3 cells. The experiment in a line: mTOR target engagement assay, immunofluorescent cell-based, p4E-BP1 Thr37/46 readout (mTORC1 activity). As to conditions: read-out: p4E-BP1 Thr37/46 IC50. An outline of the steps:
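Seed PC3 cells overnight; treat with compound dilutions for ninety minutes at 37° C; fix with glyoxal and block; stain with anti-p4E-BP1 Thr37/46 overnight at 4° C, then fluorescent secondary; read fluorescence and fit IC50 against DMSO-only controls.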

Test [2] relates to phosphorylated AKT Ser473 (pAKT S473), mTORC2 activity, PC3 cells. Description: mTOR target engagement assay, immunofluorescent cell-based, pAKT S473 readout (mTORC2 activity). An outline of the steps:
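After blocking, cells were stained overnight at 4 °C with anti-pAKT S473 antibody, then a fluorescent secondary; inhibition was read as reduced fluorescence intensity.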

[3] abbreviates: Homo sapiens, PC-3, Table 3-1, PC3 cells.
The mark [4] stands for this setting: Homo sapiens, PC-3, PC3 cells, compound treatment ninety minutes at 37° C.
Setting [5] is: Homo sapiens, PC-3, Table 6-1, PC3 cells.
The mark [6] stands for this setting: Homo sapiens, PC-3, Table 7-8, PC3 cells.

Regarding `Nc1c(C2CC2)c([C@@H]2C[C@H]3CC[C@@H](C2)N3C(=O)CO)nc2c(-c3ccc(C4(O)CCC4)nc3)cnn12` [Compound 7.72, 1-((1R,3s,5S)-3-(7-amino-6-cyclopropyl-3-(6-(1-hydroxycyclobutyl)pyridin-3-yl)pyrazolo[1,5-a]pyrimidin-5-yl)-8-azabicyclo[3.2.1]octan-8-yl)-2-hydroxyethanone], the IC50 fell in the range of 100 to 1000 nM in test [1] (Homo sapiens, PC-3, PC3 cells) and 100 to 1000 nM in test [2] (Homo sapiens, PC-3, PC3 cells).
Take `CS(=O)(=O)c1c([C@@H]2C[C@H]3CC[C@@H](C2)N3C(=O)CO)nc2c(-c3ccc(C(O)C(F)(F)F)nc3)cnn2c1N` (stereo partly drawn) [Compound 7.70, 1-((1R,3s,5S)-3-(7-amino-6-(methylsulfonyl)-3-(6-(2,2,2-trifluoro-1-hydroxyethyl)pyridin-3-yl)pyrazolo[1,5-a]pyrimidin-5-yl)-8-azabicyclo[3.2.1]octan-8-yl)-2-hydroxyethanone]: the IC50 was in the range of 1000 to 10000 nM in test [1] (Homo sapiens, PC-3, PC3 cells) and 1000 to 10000 nM in test [2] (Homo sapiens, PC-3, PC3 cells).
Regarding `Cc1nc(C(=O)N2[C@@H]3CC[C@H]2C[C@H](c2nc4c(-c5ccc(-c6csc(C)n6)nc5)cnn4c(N)c2S(C)(=O)=O)C3)n[nH]1` [Compound 3.199, ((1R,3s,5S)-3-(7-amino-6-(methylsulfonyl)-3-(6-(2-methylthiazol-4-yl)pyridin-3-yl)pyrazolo[1,5-a]pyrimidin-5-yl)-8-azabicyclo[3.2.1]octan-8-yl)(5-methyl-1H-1,2,4-triazol-3-yl)methanone], the figures for the IC50 in test [1] (setting [3]) and in test [2] (setting [3]) were 100 to 1000 nM and 1 to 100 nM, respectively.
Turning to `CS(=O)(=O)c1c([C@@H]2C[C@H]3CC[C@@H](C2)N3C(=O)c2nnc[nH]2)nc2c(-c3cccnc3)cnn2c1N` [Compound 3.69, ((1R,3s,5S)-3-(7-amino-6-(methylsulfonyl)-3-(pyridin-3-yl)pyrazolo[1,5-a]pyrimidin-5-yl)-8-azabicyclo[3.2.1]octan-8-yl)(4H-1,2,4-triazol-3-yl)methanone], the IC50 in test [1] (Table 3-1, PC3 cells) lay in the range of 100 to 1000 nM; in test [2] (Table 3-1, PC3 cells), 100 to 1000 nM.
For the molecule `CS(=O)(=O)c1c([C@@H]2C[C@H]3CC[C@@H](C2)N3C(=O)c2nnc[nH]2)nc2c(-c3ccc(-c4cn[nH]c4)nc3)cnn2c1N` [Compound 3.109, ((1R,3s,5S)-3-(3-(6-(1H-pyrazol-4-yl)pyridin-3-yl)-7-amino-6-(methylsulfonyl)pyrazolo[1,5-a]pyrimidin-5-yl)-8-azabicyclo[3.2.1]octan-8-yl)(4H-1,2,4-triazol-3-yl)methanone], the IC50 in test [1] (setting [3]) and in test [2] (setting [3]) was 1000 to 10000 nM in each case.
`[2H]C([2H])([2H])Oc1ccc(-c2ccc(-c3cnn4c(N)c(C(C)=O)c([C@@H]5C[C@H]6CC[C@@H](C5)N6C(=O)c5nnc[nH]5)nc34)cn2)cc1` [Compound 1.1.77, 1-(5-((1R,3s,5S)-8-(4H-1,2,4-triazole-3-carbonyl)-8-azabicyclo[3.2.1]octan-3-yl)-7-amino-3-(6-(4-methoxy-(D3)-phenyl)pyridin-3-yl)pyrazolo[1,5-a]pyrimidin-6-yl)ethanone]: the IC50 in test [1] (setting [4]) and in test [2] (setting [4]) was 1 to 100 nM throughout.
Take `CS(=O)(=O)c1c([C@@H]2C[C@H]3CC[C@@H](C2)N3C(=O)c2cc(N)n[nH]2)nc2c(-c3ccc(-c4ccc(F)cc4F)nc3)cnn2c1N` [Compound 3.129, (3-amino-1H-pyrazol-5-yl)((1R,3s,5S)-3-(7-amino-3-(6-(2,4-difluorophenyl)pyridin-3-yl)-6-(methylsulfonyl)pyrazolo[1,5-a]pyrimidin-5-yl)-8-azabicyclo[3.2.1]octan-8-yl)methanone]: the IC50 in test [1] (setting [3]) and in test [2] (setting [3]) was 1 to 100 nM throughout.
For the molecule `CS(=O)(=O)c1c([C@@H]2C[C@H]3CC[C@@H](C2)N3C(=O)CO)nc2c(-c3ccc(-c4ncc[nH]4)cc3)cnn2c1N` [Compound 6.35, 1-((1R,3s,5S)-3-(3-(4-(1H-imidazol-2-yl)phenyl)-7-amino-6-(methylsulfonyl)pyrazolo [1,5-a]pyrimidin-5-yl)-8-azabicyclo[3.2.1]octan-8-yl)-2-hydroxyethanone], the figures for the IC50 in test [1] (setting [5]) and in test [2] (setting [5]) were 100 to 1000 nM and 1 to 100 nM, respectively.
As to `CS(=O)(=O)c1c([C@@H]2C[C@H]3CC[C@@H](C2)N3C(=O)C(O)C(F)(F)F)nc2c(-c3ccc(-c4ccccc4)nc3)cnn2c1N` (stereo partly drawn) [Compound 3.15, 1-((1R,3s,5S)-3-(7-amino-6-(methylsulfonyl)-3-(6-phenylpyridin-3-yl)pyrazolo[1,5-a]pyrimidin-5-yl)-8-azabicyclo[3.2.1]octan-8-yl)-3,3,3-trifluoro-2-hydroxypropan-1-one], the IC50 in test [1] (setting [3]) and in test [2] (setting [3]) was 1000 to 10000 nM each time.
With `CC(=O)c1c([C@@H]2C[C@H]3CC[C@@H](C2)N3C(=O)CO)nc2c(-c3ccc(-c4ccn(CF)n4)nc3)cnn2c1N` [Compound 1.1.87, 1-((1R,3s,5S)-3-(6-acetyl-7-amino-3-(6-(1-(fluoromethyl)-1H-pyrazol-3-yl)pyridin-3-yl)pyrazolo[1,5-a]pyrimidin-5-yl)-8-azabicyclo[3.2.1]octan-8-yl)-2-hydroxyethanone], the IC50 in test [1] (setting [4]) and in test [2] (setting [4]) was 1 to 100 nM in each case.
Regarding `CNC(=O)N1[C@@H]2CC[C@H]1C[C@H](c1nc3c(-c4ccc(-c5ccccc5)nc4)cnn3c(N)c1C(C)=O)C2` [Compound 1.1.39, (1R,3s,5S)-3-(6-acetyl-7-amino-3-(6-phenylpyridin-3-yl)pyrazolo[1,5-a]pyrimidin-5-yl)-N-methyl-8-azabicyclo[3.2.1]octane-8-carboxamide], the IC50 in test [1] (setting [4]) and in test [2] (setting [4]) was 1 to 100 nM each time.
For the molecule `C=C(C)c1c([C@@H]2C[C@H]3CC[C@@H](C2)N3C(=O)CO)nc2c(-c3ccc(-c4ncc[nH]4)nc3)cnn2c1N` [Compound 6.7, 1-((1R,3s,5S)-3-(3-(6-(1H-imidazol-2-yl)pyridin-3-yl)-7-amino-6-(prop-1-en-2-yl)pyrazolo[1,5-a]pyrimidin-5-yl)-8-azabicyclo[3.2.1]octan-8-yl)-2-hydroxyethanone], the IC50 in test [1] (setting [5]) and in test [2] (setting [5]) was 1 to 100 nM each time.
With `CS(=O)(=O)c1c([C@@H]2C[C@H]3CC[C@@H](C2)N3C(=O)c2nnc[nH]2)nc2c(-c3cnc(-c4ccccc4)nc3)cnn2c1N` [Compound 3.136, ((1R,3s,5S)-3-(7-amino-6-(methylsulfonyl)-3-(2-phenylpyrimidin-5-yl)pyrazolo[1,5-a]pyrimidin-5-yl)-8-azabicyclo[3.2.1]octan-8-yl)(4H-1,2,4-triazol-3-yl)methanone], the IC50 in test [1] (setting [3]) and in test [2] (setting [3]) was 1 to 100 nM each time.
In the case of `COc1ccc(-c2ncc(-c3cnn4c(N)c(S(C)(=O)=O)c([C@@H]5C[C@H]6CC[C@@H](C5)N6C(=O)c5nnc[nH]5)nc34)cn2)c(F)c1F` [Compound 3.148, ((1R,3s,5S)-3-(7-amino-3-(2-(2,3-difluoro-4-methoxyphenyl)pyrimidin-5-yl)-6-(methylsulfonyl)pyrazolo[1,5-a]pyrimidin-5-yl)-8-azabicyclo[3.2.1]octan-8-yl)(4H-1,2,4-triazol-3-yl)methanone], the IC50 in test [1] (setting [3]) and in test [2] (setting [3]) was 100 to 1000 nM each time.
As for `CS(=O)(=O)c1c([C@@H]2C[C@H]3CC[C@@H](C2)N3C(=O)c2nnc[nH]2)nc2c(-c3ccc(C4(O)CCCC4)nc3)cnn2c1N` [Compound 7.46, ((1R,3s,5S)-3-(7-amino-3-(6-(1-hydroxycyclopentyl)pyridin-3-yl)-6-(methylsulfonyl)pyrazolo [1,5-a]pyrimidin-5-yl)-8-azabicyclo[3.2.1]octan-8-yl)(4H-1,2,4-triazol-3-yl)methanone], the IC50 in test [1] (setting [6]) and in test [2] (setting [6]) was 1 to 100 nM in each case.
With `CS(=O)(=O)c1c([C@@H]2C[C@H]3CC[C@@H](C2)N3C(=O)c2nnc[nH]2)nc2c(-c3ccc(OCC4CC4)nc3)cnn2c1N` [Compound 8.54, ((1R,3s,5S)-3-(7-amino-3-(6-(cyclopropylmethoxy)pyridin-3-yl)-6-(methylsulfonyl)pyrazolo[1,5-a]pyrimidin-5-yl)-8-azabicyclo[3.2.1]octan-8-yl)(4H-1,2,4-triazol-3-yl)methanone], the IC50 in test [1] (Homo sapiens, PC-3, PC3 cells) was more than 10000 nM; in test [2] (Homo sapiens, PC-3, PC3 cells), more than 10000 nM.
On to `CCc1c([C@@H]2C[C@H]3CC[C@@H](C2)N3C(=O)c2nc(C)n[nH]2)nc2c(-c3ccc(-c4ccccc4)nc3)cnn2c1N` [Compound 5.9, ((1R,3s,5S)-3-(7-amino-6-ethyl-3-(6-phenylpyridin-3-yl)pyrazolo[1,5-a]pyrimidin-5-yl)-8-azabicyclo[3.2.1]octan-8-yl)(3-methyl-1H-1,2,4-triazol-5-yl)methanone], for which the IC50 in test [1] (setting [4]) and in test [2] (setting [4]) was 1 to 100 nM throughout.
For the molecule `CC(=O)c1c([C@]2(O)C[C@H]3CC[C@@H](C2)N3C(=O)c2nnc[nH]2)nc2c(-c3ccc(-c4ccccc4)nc3)cnn2c1N` [Compound 8.21, 1-(7-amino-5-((1R,3r,5S)-3-hydroxy-8-(4H-1,2,4-triazole-3-carbonyl)-8-azabicyclo[3.2.1]octan-3-yl)-3-(6-phenylpyridin-3-yl)pyrazolo[1,5-a]pyrimidin-6-yl)ethanone], the IC50 lay within 1000 to 10000 nM in test [1] (Homo sapiens, PC-3, PC3 cells) and 1000 to 10000 nM in test [2] (Homo sapiens, PC-3, PC3 cells).
